Target: T1, CDK4/cyclin D3 (Homo sapiens, UniProt P11802)
T1 construct: made in house; host or cells: insect cells (baculovirus co-infection)
Test: Inhibition of CDK4/Cyclin D retinoblastoma kinase activity;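 for % Inhib CDK4/D @ 1 μM: relative to DMSO control wells without compound minus no-enzyme background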
Assay type: biochemical
Conditions: for inhibition at 0.1 µM / % Inhib CDK4/D @ 0.1 μM: test compound at 0.1 μM; for inhibition at 0.1 µM: read-out: % Inhib CDK4/D @ 0.1 μM; for inhibition at 1 µM / % Inhib CDK4/D @ 1 μM: test compound at 1 μM (head line shifted: 'mM' printed beside 'Structure'); for inhibition at 1 µM: read-out: % Inhib CDK4/D @ 1 μM; for inhibition at 0.03 µM / % Inhib CDK4/D @ 0.03: test compound at 0.03 (unit cell empty, head line shifted; μM); for inhibition at 0.03 µM: read-out: % Inhib CDK4/D @ 0.03
Outline: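 Human CDK4 with truncated cyclin D3 (1-264) from baculovirus-infected insect cells, 5 nM, phosphorylating His-tagged Rb fragment (386-928) with 25 μM [32P/33P]ATP in pH 7.4 HEPES/MgCl2, 2% DMSO, 30° C., 20 min (60 min for tight binders). Filter capture, phosphorimager; apparent Ki from competitive or tight-binding competitive fits.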

T1 sequence (P11802 whole entry): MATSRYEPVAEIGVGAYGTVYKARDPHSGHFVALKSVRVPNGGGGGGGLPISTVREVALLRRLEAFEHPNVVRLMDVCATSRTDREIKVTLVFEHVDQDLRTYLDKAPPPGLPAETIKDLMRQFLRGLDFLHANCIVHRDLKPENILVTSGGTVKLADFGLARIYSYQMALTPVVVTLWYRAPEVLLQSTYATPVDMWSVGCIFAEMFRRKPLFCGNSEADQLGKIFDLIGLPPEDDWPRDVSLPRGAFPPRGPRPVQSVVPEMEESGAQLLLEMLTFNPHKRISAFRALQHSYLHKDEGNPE
T1 sequence (P30281 1-264 partner limits assumed): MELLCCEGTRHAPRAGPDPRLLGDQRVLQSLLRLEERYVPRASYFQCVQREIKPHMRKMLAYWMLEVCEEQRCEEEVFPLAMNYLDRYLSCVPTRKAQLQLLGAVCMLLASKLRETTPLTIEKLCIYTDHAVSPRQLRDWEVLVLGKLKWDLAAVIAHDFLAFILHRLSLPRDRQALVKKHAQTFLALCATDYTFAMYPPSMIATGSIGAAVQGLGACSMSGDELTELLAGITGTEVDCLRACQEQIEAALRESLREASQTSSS

Row | Compound | inhibition at 0.1 µM [%] | inhibition at 1 µM [%] | inhibition at 0.03 µM [%] | % Inhib CDK4/D @ 0.1 μM [%] | % Inhib CDK4/D @ 0.03 [%] | % Inhib CDK4/D @ 1 μM [%]
1 | Nc1nc(Nc2cccc([S+]([O-])Cc3ccncc3)c2)sc1C(=O)c1c(Cl)cccc1Cl (stereo not drawn) [DD(155)] | 35 | 59.6 | 25 | – | – | –
2 | CCC(CC)C[S+]([O-])c1cccc(Nc2nc(N)c(C(=O)c3c(Cl)cccc3Cl)s2)c1 (stereo not drawn) [DD(156)] | 25 | 15.1 | 17 | – | – | –
3 | CC(=O)OCC[S+]([O-])c1cccc(Nc2nc(N)c(C(=O)c3c(Cl)cccc3Cl)s2)c1 (stereo not drawn) [DD(157)] | 42 | 59.7 | 21 | – | – | –
4 | CC(C)OC(=O)CC[S+]([O-])c1cccc(Nc2nc(N)c(C(=O)c3c(Cl)cccc3Cl)s2)c1 (stereo not drawn) [DD(158)] | 27 | 35 | 22 | – | – | –
5 | Nc1nc(Nc2cccc([S+]([O-])CCN3CCOCC3)c2)sc1C(=O)c1c(Cl)cccc1Cl (stereo not drawn) [DD(159)] | 25 | 44 | 36 | – | – | –
6 | CC(C)(CO)C[S+]([O-])c1cccc(Nc2nc(N)c(C(=O)c3c(Cl)cccc3Cl)s2)c1 (stereo not drawn) [DD(160)] | 19 | 49 | 8.1 | – | – | –
7 | CCN(CC)C(=O)CS(=O)(=O)c1ccc(Nc2nc(N)c(C(=O)c3c(Cl)cccc3Cl)s2)cc1 [DD(161)] | – | 9.1 | – | −7 | −9.2 | –
8 | Cc1noc(C)c1CS(=O)(=O)c1ccc(Nc2nc(N)c(C(=O)c3c(Cl)cccc3Cl)s2)cc1 [DD(162)] | – | – | – | 13 | 5.8 | 14
9 | CC(CN(C)C)CS(=O)(=O)c1ccc(Nc2nc(N)c(C(=O)c3c(Cl)cccc3Cl)s2)cc1 (stereo not drawn) [DD(163)] | 27 | 52.8 | -5.8 | – | – | –
10 | COC(=O)/C=C/CS(=O)(=O)c1ccc(Nc2nc(N)c(C(=O)c3c(Cl)cccc3Cl)s2)cc1 [DD(164)] | – | – | – | 8.6 | −7.4 | −6.9
11 | Nc1nc(Nc2ccc(S(=O)(=O)CCCO)cc2)sc1C(=O)c1c(Cl)cccc1Cl [DD(165)] | – | – | – | 10 | −1.8 | 34.3
12 | C=CCCS(=O)(=O)c1ccc(Nc2nc(N)c(C(=O)c3c(Cl)cccc3Cl)s2)cc1 [DD(166)] | 14 | – | – | – | 3.5 | 14.5
13 | Nc1nc(Nc2ccc(S(=O)(=O)CCN3CCCC3)cc2)sc1C(=O)c1c(Cl)cccc1Cl [DD(167)] | – | – | – | 17 | −2.5 | 0.8
14 | Nc1nc(Nc2ccc(S(=O)(=O)Cc3ncon3)cc2)sc1C(=O)c1c(Cl)cccc1Cl [DD(168)] | – | 30.7 | – | 7.8 | 8.3 | –
15 | Nc1nc(Nc2ccc(S(=O)(=O)CC3CNC(=O)O3)cc2)sc1C(=O)c1c(Cl)cccc1Cl (stereo not drawn) [DD(169)] | – | – | – | 33 | 44 | 36.4
16 | CN(C)CCCS(=O)(=O)c1ccc(Nc2nc(N)c(C(=O)c3c(Cl)cccc3Cl)s2)cc1 [DD(170)] | 18 | 25.8 | 22 | – | – | –
17 | Nc1nc(Nc2ccc(S(=O)(=O)CCN3CCCCC3)cc2)sc1C(=O)c1c(Cl)cccc1Cl [DD(171)] | 21 | – | – | – | −29 | 17.1
18 | Nc1nc(Nc2ccc(S(=O)(=O)CC3CO3)cc2)sc1C(=O)c1c(Cl)cccc1Cl (stereo not drawn) [DD(172)] | 24 | – | – | – | −26 | 24.9
19 | CC(C)CCS(=O)(=O)c1ccc(Nc2nc(N)c(C(=O)c3c(Cl)cccc3Cl)s2)cc1 [DD(173)] | 17 | – | – | – | −11 | 14.5
20 | COCCS(=O)(=O)c1ccc(Nc2nc(N)c(C(=O)c3c(Cl)cccc3Cl)s2)cc1 [DD(174)] | 24 | – | – | – | −16 | 24.6
21 | Nc1nc(Nc2ccc(S(=O)(=O)CC(=O)Nc3ccccc3)cc2)sc1C(=O)c1c(Cl)cccc1Cl [DD(175)] | 23 | – | – | – | −14 | 12.4
22 | Nc1nc(Nc2ccc(S(=O)(=O)CC3CC3)cc2)sc1C(=O)c1c(Cl)cccc1Cl [DD(176)] | 13 | – | 17 | – | – | 5.4
23 | COc1cccc(CS(=O)(=O)c2ccc(Nc3nc(N)c(C(=O)c4c(Cl)cccc4Cl)s3)cc2)c1 [DD(177)] | – | – | – | 15 | −29 | 3.2

Row | Compound | inhibition at 0.1 µM [%] | inhibition at 1 µM [%] | inhibition at 0.03 µM [%] | % Inhib CDK4/D @ 0.1 μM [%] | % Inhib CDK4/D @ 0.03 [%] | % Inhib CDK4/D @ 1 μM [%]
24 | Nc1nc(Nc2ccc(S(=O)(=O)CC3CCCO3)cc2)sc1C(=O)c1c(Cl)cccc1Cl (stereo not drawn) [DD(178)] | – | 16.6 | – | 16 | −27 | –
25 | CN1CCCC1CCS(=O)(=O)c1ccc(Nc2nc(N)c(C(=O)c3c(Cl)cccc3Cl)s2)cc1 (stereo not drawn) [DD(179)] | 24 | – | – | – | −1.1 | 9.4
26 | CC1(CS(=O)(=O)c2ccc(Nc3nc(N)c(C(=O)c4c(Cl)cccc4Cl)s3)cc2)CO1 (stereo not drawn) [DD(180)] | – | – | – | 13 | −14 | 4.2
27 | NC(=O)CS(=O)(=O)c1ccc(Nc2nc(N)c(C(=O)c3c(Cl)cccc3Cl)s2)cc1 [DD(181)] | 28 | 27.5 | – | – | −10 | –
28 | CCOC(=O)CCS(=O)(=O)c1ccc(Nc2nc(N)c(C(=O)c3c(Cl)cccc3Cl)s2)cc1 [DD(182))] | – | – | – | 17 | −12 | 5.4
29 | CC(C)OC(=O)CS(=O)(=O)c1ccc(Nc2nc(N)c(C(=O)c3c(Cl)cccc3Cl)s2)cc1 [DD(183)] | – | – | – | 17 | 8.6 | 1.9
30 | CC(C)=CCS(=O)(=O)c1ccc(Nc2nc(N)c(C(=O)c3c(Cl)cccc3Cl)s2)cc1 [DD(184)] | 9 | – | – | – | 1.6 | −3.3
31 | CCCS(=O)(=O)c1ccc(Nc2nc(N)c(C(=O)c3c(Cl)cccc3Cl)s2)cc1 [DD(185)] | 33 | – | – | – | 8.5 | 22.3
32 | COC(=O)CS(=O)(=O)c1ccc(Nc2nc(N)c(C(=O)c3c(Cl)cccc3Cl)s2)cc1 [DD(186)] | 26 | – | – | – | 7 | 38.9
33 | CN1CCCC(CS(=O)(=O)c2ccc(Nc3nc(N)c(C(=O)c4c(Cl)cccc4Cl)s3)cc2)C1 (stereo not drawn) [DD(187)] | 24 | – | – | – | 6 | −6.4
34 | NC(=O)CCS(=O)(=O)c1ccc(Nc2nc(N)c(C(=O)c3c(Cl)cccc3Cl)s2)cc1 [DD(188)] | 35 | 25.9 | – | – | −11 | –
35 | Nc1nc(Nc2ccc(S(=O)(=O)CCO)cc2)sc1C(=O)c1c(Cl)cccc1Cl [DD(189)] | 31 | – | – | – | −19 | 32.2
36 | CC(C)CCCS(=O)(=O)c1ccc(Nc2nc(N)c(C(=O)c3c(Cl)cccc3Cl)s2)cc1 [DD(190)] | 25 | – | – | – | −21 | 33.4
37 | CC(C)CCOC(=O)CS(=O)(=O)c1ccc(Nc2nc(N)c(C(=O)c3c(Cl)cccc3Cl)s2)cc1 [DD(191)] | – | – | – | 31 | −24 | 9.3
38 | CC(C)CCOC(=O)CS(=O)(=O)c1ccc(Nc2nc(N)c(C(=O)c3c(Cl)cccc3Cl)s2)cc1 [DD(192)] | – | – | – | 11 | 5.6 | −29
39 | CC(C)CCOC(=O)CS(=O)(=O)c1ccc(Nc2nc(N)c(C(=O)c3c(Cl)cccc3Cl)s2)cc1 [DD(193)] | – | – | – | 31 | −2.9 | 61.1
40 | CC(C)CCOC(=O)CS(=O)(=O)c1ccc(Nc2nc(N)c(C(=O)c3c(Cl)cccc3Cl)s2)cc1 [DD(194)] | – | – | – | 32 | −29 | 6.3
41 | Nc1nc(Nc2ccc(S(=O)(=O)Cc3ccccc3)cc2)sc1C(=O)c1c(Cl)cccc1Cl [DD(195)] | 25 | 22.3 | 3.8 | – | – | –
42 | CCC(CC)S(=O)(=O)c1ccc(Nc2nc(N)c(C(=O)c3c(Cl)cccc3Cl)s2)cc1 [DD(196)] | 15 | 14.4 | 1.3 | – | – | –
43 | CC(=O)OCCS(=O)(=O)c1ccc(Nc2nc(N)c(C(=O)c3c(Cl)cccc3Cl)s2)cc1 [DD(197)] | 37 | – | – | – | 6.5 | 62.3
44 | CC(C)OC(=O)CCS(=O)(=O)c1ccc(Nc2nc(N)c(C(=O)c3c(Cl)cccc3Cl)s2)cc1 [DD(198)] | 9.2 | 5.1 | -24 | – | – | –
45 | Nc1nc(Nc2ccc(S(=O)(=O)CCN3CCOCC3)cc2)sc1C(=O)c1c(Cl)cccc1Cl [DD(199)] | 31 | – | – | – | −7.7 | 40.5
46 | CC(C)(CO)CS(=O)(=O)c1ccc(Nc2nc(N)c(C(=O)c3c(Cl)cccc3Cl)s2)cc1 [DD(200)] | 22 | – | – | – | −13 | 22.4
